Reference: PMC3938571, “Modulation of Basophils' Degranulation and Allergy-Related Enzymes by Monomeric and Dimeric Naphthoquinones” (PLoS ONE, 2014)
Entries after “also recorded” stand apart in the source; their conditions may differ.

Tests used:
[1] = tested on: hyaluronidase from bovine tests (type IV-S; EC 3.2.1.35); assay: Hyaluronidase inhibition, cell-free (Morgan-Elson); type: biochemical; settings: for Hyaluronidase inhibition (%): maximal inhibition, mean±SEM
Protocol: The reaction product, N-acetyl-sugar, was quantified according Morgan-Elson colour reaction with minor modifications. The Morgan-Elson reaction was started by addition of 25 µl disodium tetraborate 0.8 M and subsequent heating in a boiling water bath during 3 min. After cooling, 750 µl p-dimethylaminobenzaldehyde (DMAB) was added and the reaction mixture was incubated at 37°C for 20 min. […] The measurement was made spectrophotometrically, at 560 nm, in a microplate reader (Multiskan ASCENT Thermo®), [24]. Sodium cromoglycate was used as a positive control for inhibition.

[2] = tested on: leukotriene C4 production; assay: Leukotriene C4 production in IgE/antigen-stimulated RBL-2H3 cells (EIA); type: cell-based, rat
soybean lipoxidase = target: T1, soybean lipoxidase (Glycine max, UniProt P08170); assay: Soybean lipoxidase inhibition, cell-free; type: biochemical, Glicine max (L.) Merr.; settings: mean±SEM; for IC50: cell-free assay
T1 construct: purchased Sigma-Aldrich (St. Louis, MO, USA) type V-S; host or cells: soybean (plant preparation)
T1 sequence (P08170 1-839): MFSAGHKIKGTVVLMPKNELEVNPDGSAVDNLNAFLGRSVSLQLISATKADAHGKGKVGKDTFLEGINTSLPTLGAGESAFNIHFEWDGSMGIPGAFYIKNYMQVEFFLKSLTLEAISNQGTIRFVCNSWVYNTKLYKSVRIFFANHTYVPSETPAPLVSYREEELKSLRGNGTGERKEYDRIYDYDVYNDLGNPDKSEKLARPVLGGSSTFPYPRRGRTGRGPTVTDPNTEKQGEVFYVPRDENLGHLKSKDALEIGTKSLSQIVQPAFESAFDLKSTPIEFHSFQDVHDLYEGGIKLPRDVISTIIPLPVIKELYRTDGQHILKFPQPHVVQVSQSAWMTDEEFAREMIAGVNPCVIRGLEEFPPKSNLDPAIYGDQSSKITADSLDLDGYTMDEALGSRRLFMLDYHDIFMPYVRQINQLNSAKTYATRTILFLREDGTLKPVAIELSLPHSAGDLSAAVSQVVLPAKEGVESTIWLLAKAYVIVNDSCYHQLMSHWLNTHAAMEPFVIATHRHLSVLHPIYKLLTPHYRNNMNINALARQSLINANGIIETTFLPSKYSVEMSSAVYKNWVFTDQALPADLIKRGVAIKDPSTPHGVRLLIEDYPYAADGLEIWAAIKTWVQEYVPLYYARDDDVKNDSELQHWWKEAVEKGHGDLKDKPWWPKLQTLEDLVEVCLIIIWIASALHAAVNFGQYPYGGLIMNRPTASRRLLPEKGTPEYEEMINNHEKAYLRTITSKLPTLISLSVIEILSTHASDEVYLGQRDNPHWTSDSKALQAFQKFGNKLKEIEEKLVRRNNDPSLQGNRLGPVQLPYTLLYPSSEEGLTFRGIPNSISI
Protocol: Lipoxidase catalyses the oxidation of linoleic acid to the conjugated diene, 13-hydroperoxy linoleic acid, which was measured spectrophotometrically at 234 nm on a UV/visible spectrophotometer (UNICAM Helios α). The blank was measured in a reaction mixture with 20 µl of individual naphthoquinones solution, 1 ml of phosphate buffer (pH 9) and 20 µl of soybean lipoxidase 500 U. After 5 min pre-incubation at room temperature, the reaction was started by addition of 50 µl of substrate (linoleic acid) at 2 mM in ethanol. The reaction time was 3 min.

RBL-2H3 cells [3] = assay: Calcium ionophore A23187-induced RBL-2H3 degranulation (β-hexosaminidase release); type: cell-based, rat; settings: for Effect on A23187 (calcium ionophore)-induced degranulation (in words): naphthazarin 0.1 µM, plumbagin 1 µM, diospyrin 10 µM, others at maximal tested concentrations
Protocol: (§1) RBL-2H3 cells were seeded at 3.0×10^5 cells/mL in 24-wells plate (1 mL/well), and assayed after 24h at near-confluent stage (∼90%). Two different degranulation stimuli were used: calcium ionophore A23187 500 ng/mL (1 µM) and an immunologic stimulus (100 ng/mL IgE anti-DNP followed by 100 ng/mL DNP-BSA) that we refer to as IgE/antigen (Fig. 2). Both stimuli induced degranulation, which was quantified by β-hexosaminidase and histamine release. With IgE/antigen, β-hexosaminidase release (p-nitrophenolate absorbance) increased by 65.4±6.8% above basal (n = 16; P<0.001), whereas histamine increased from the basal value of 0.156±0.151 µM towards 0.521±0.186 µM (n = 10; P<0.05). With A23187, β-hexosaminidase release increased by 187±18.9% above basal (n = 12; P<0.001), whereas histamine increased towards 2.43±0.330 µM (n = 12; P<0.001). Thus, the ability of naphthoquinones to reduce β-hexosaminidase release was quantified for both stimuli, whereas effects upon histamine were only quantified with the A23187 stimulus, given the low histamine release and poor signal to noise achieved with IgE/antigen.
(§2) Before treatment with A23187, cells were incubated with individual naphthoquinones during 15 min, at 37°C. After that, A23187 1 µM was added and cells incubated for 30 min, at 37°C (Fig. 2B). Compounds were freshly diluted prior to cell exposure using EBSS supplemented with 0.1% BSA [21]. β-hexosaminidase and histamine release was quantified in supernatants, whereas the MTT cell viability assay was performed on adherent cells.
The release of β-hexosaminidase from stimulated-RBL-2H3 cells was measured as previously described. In a 96-wells plate, 50 µl of substrate solution [p-nitrophenyl N-acetyl-D-glucosamine 1.3 mg/ml in citrate buffer (pH 4.5)] were added to 30 µl of supernatant. The plate was incubated at 37°C, during 1 h. The reaction was stopped by the addition of 80 µl of NaOH 0.5 M and the reaction product, p-nitrophenolate, was measured spectrophotometrically at 405 nm, in a microplate reader (Multiskan ASCENT Thermo®).

RBL-2H3 cells [4] = assay: IgE/antigen-induced RBL-2H3 basophils' degranulation (β-hexosaminidase release); type: cell-based, rat; settings: for Effect on IgE/antigen-induced degranulation (in words): naphthazarin 0.1 µM, plumbagin 1 µM
Protocol: RBL-2H3 cells were seeded at 3.0×10^5 cells/mL in 24-wells plate (1 mL/well), and assayed after 24h at near-confluent stage (∼90%). Two different degranulation stimuli were used: calcium ionophore A23187 500 ng/mL (1 µM) and an immunologic stimulus (100 ng/mL IgE anti-DNP followed by 100 ng/mL DNP-BSA) that we refer to as IgE/antigen (Fig. 2). […] Thus, the ability of naphthoquinones to reduce β-hexosaminidase release was quantified for both stimuli, whereas effects upon histamine were only quantified with the A23187 stimulus, given the low histamine release and poor signal to noise achieved with IgE/antigen.
When the IgE/antigen was used as stimulus, cells were incubated during 16 h with 100 ng/ml IgE anti-DNP and with individual naphthoquinones diluted in culture medium. After washing twice with Dulbecco's phosphate buffered saline (DPBS), cells were treated for 1 h, at 37°C, with 100 ng/ml DNP-BSA and with individual naphthoquinones diluted in EBSS supplemented with 0.1% BSA (Fig. 2A). After treatments, supernatants were collected in order to quantify released β-hexosaminidase and released histamine, while cell viability assay was performed on adherent cells.
The release of β-hexosaminidase from stimulated-RBL-2H3 cells was measured as previously described. In a 96-wells plate, 50 µl of substrate solution [p-nitrophenyl N-acetyl-D-glucosamine 1.3 mg/ml in citrate buffer (pH 4.5)] were added to 30 µl of supernatant. The plate was incubated at 37°C, during 1 h.

RBL-2H3 cells [5] = assay: Histamine release in A23187-stimulated RBL-2H3 cells; type: cell-based, rat; settings: 10 µM; A23187 1 µM stimulus
Protocol: as §1, with “With A23187, β-hexosaminidase release increased by 187±18.9% above basal (n = 12; P<0.001), whereas histamine increased towards 2.43±0.330 µM (n = 12; P<0.001).” left out
as §2, with “After that, A23187 1 µM was added and cells incubated for 30 min, at 37°C (Fig. 2B).” left out, “cells. […]” for “cells.”

[6] = tested on: prostaglandin H2 (PGH2) synthase; design: method as in PMID 2495300; settings: via ROS production; read-out: IC50 for inhibition of prostaglandin H2 (PGH2) synthase; cited from earlier work
leukotriene production = tested on: leukotriene production; design: method as in PMID 20460770; settings: by inhibiting 5-lipoxygenase translocation to the nuclear membrane; cited from earlier work
[7] = tested on: peripheral blood mononuclear cells (PBMC); design: method as in PMID 21134493; settings: 5 µM; phytohemagglutinin-stimulated PBMC; cited from earlier work
RBL-2H3 cells [8] = type: cell-based; settings: rat
Protocol: Cell viability was assessed by the cellular dehydrogenases' dependent reduction of MTT to formazan, which was quantified by the measurement of optical density at 550 nm using a microplate reader (Multiskan ASCENT Thermo®), as described before.

[9] = Rattus norvegicus, RBL-2H3, maximal inhibition, mean±SEM, read-out: Degranulation inhibition (%) A23187 (decrease of β-hexosaminidase release)
[10] = Rattus norvegicus, RBL-2H3, maximal inhibition, mean±SEM, read-out: Degranulation inhibition (%) IgE/antigen (decrease of β-hexosaminidase release)

Cc1cc(O)c2c(c1)C(=O)C(c1c(C)cc3c(c1O)C(=O)C=CC3=O)=CC2=O [Diospyrin, diospyrin]
Hyaluronidase inhibition (%) ([1]; 20 µM): < 15 (20 µM) %
Effect on leukotriene (LT) C4 levels evoked by IgE/antigen (in words) ([2]; 1 µM): unaffected; also recorded: unable to reduce leukotrien C4
inhibition at 36.7 µM (soybean lipoxidase; 36.7 µM, maximal inhibition): 65.6 ± 6.24%
IC50 (soybean lipoxidase): 28.9 ± 2.53 µM
inhibition at 10 µM (RBL-2H3 cells [3]; [9]): 56.8 ± 14.6%
Effect on A23187 (calcium ionophore)-induced degranulation (in words) (RBL-2H3 cells [3]): reduced degranulation
inhibition at 1 µM (RBL-2H3 cells [4]; [10]): < 15%
Decrease of histamine release (RBL-2H3 cells [5]): 51.4±12.8%

Cc1cc(O)c2c(c1)C(=O)C(c1c(C)cc3c(c1O)C(=O)C1OC1C3=O)=CC2=O (centres unmarked) [Diosquinone, diosquinone]
Hyaluronidase inhibition (%) ([1]; 100 µM): < 15 (100 µM) %
Effect on leukotriene (LT) C4 levels evoked by IgE/antigen (in words) ([2]; 1 µM): unaffected
inhibition at 183.5 µM (soybean lipoxidase; maximal inhibition): 96.5 ± 0.92%
IC50 (soybean lipoxidase): 83.8 ± 9.33 µM
inhibition at 1 µM (RBL-2H3 cells [3]; [9]): < 15%
inhibition at 1 µM (RBL-2H3 cells [4]; [10]): 18.4 ± 8.07%

O=C1C=CC(=O)c2c(O)cccc21 [Juglone, juglone]
Hyaluronidase inhibition (%) ([1]; 100 µM): < 15 (100 µM) %
inhibition at 183.5 µM (soybean lipoxidase; maximal inhibition): 53.1 ± 13.8%
inhibition at 10 µM (RBL-2H3 cells [3]; [9]): < 15%
inhibition at 10 µM (RBL-2H3 cells [4]; Rattus norvegicus, RBL-2H3, 10 µM, maximal inhibition, mean±SEM, read-out: Degranulation inhibition (%) IgE/antigen (decrease of β-hexosaminidase release)): 39.2 ± 13.3%

CC1=CC(=O)c2ccccc2C1=O [Menadione, menadione]
Hyaluronidase inhibition (%) ([1]; 100 µM): 23.8±6.06 (100 µM) %
Effect on leukotriene (LT) C4 levels evoked by IgE/antigen (in words) ([2]; 5 nM (lowest concentration tested)): strongly decreased LTC4 levels
Effect on leukotriene (LT) C4 levels evoked by IgE/antigen (in words) ([2]; 5 µM): full inhibition
Effect on leukotriene (LT) C4 levels evoked by IgE/antigen (in words) ([2]; 5 µM, listed as menadione): completely abrogated
IC50 ([2]; Rattus norvegicus, RBL-2H3, IgE/antigen evoked release, read-out: IC50 for decrease of LTC4 levels): 0.34 ± 0.018 µM
inhibition at 183.5 µM (soybean lipoxidase; maximal inhibition): 83.4 ± 6.8%
IC50 (soybean lipoxidase): 128 ± 9.38 µM
IC50 [6]: 5 µM
Concentrations reported to reduce leukotriene production (leukotriene production): 50 to 200 µM
inhibition at 5 µM (RBL-2H3 cells [3]; Rattus norvegicus, RBL-2H3, 5 µM, maximal inhibition, mean±SEM, read-out: Degranulation inhibition (%) A23187 (decrease of β-hexosaminidase release)): < 15%
inhibition at 5 µM (RBL-2H3 cells [4]; Rattus norvegicus, RBL-2H3, 5 µM, maximal inhibition, mean±SEM, read-out: Degranulation inhibition (%) IgE/antigen (decrease of β-hexosaminidase release)): < 15%

O=C1C=CC(=O)c2c(O)ccc(O)c21 [Naphthazarin, naphthazarin]
Hyaluronidase inhibition (%) ([1]; 100 µM): 16.9±2.45 (100 µM) %
inhibition at 183.5 µM (soybean lipoxidase; maximal inhibition): 54.4 ± 9.33%
IC50 (soybean lipoxidase): 142 ± 27.1 µM
inhibition at 0.1 µM (RBL-2H3 cells [3]; Rattus norvegicus, RBL-2H3, 0.1 µM, maximal inhibition, mean±SEM, read-out: Degranulation inhibition (%) A23187 (decrease of β-hexosaminidase release)): < 15%
Effect on A23187 (calcium ionophore)-induced degranulation (in words) (RBL-2H3 cells [3]): failed to reduce ionophore-induced degranulation
inhibition at 0.1 µM (RBL-2H3 cells [4]; Rattus norvegicus, RBL-2H3, 0.1 µM, maximal inhibition, mean±SEM, read-out: Degranulation inhibition (%) IgE/antigen (decrease of β-hexosaminidase release)): 30.8 ± 3.82%
Effect on IgE/antigen-induced degranulation (in words) (RBL-2H3 cells [4]): decreased IgE/antigen-induced degranulation

CC1=CC(=O)c2c(O)cccc2C1=O [Plumbagin, plumbagin]
Hyaluronidase inhibition (%) ([1]; 100 µM): < 15 (100 µM) %
Effect on cytokines production (in words) [7]: inhibited cytokines production
inhibition at 183.5 µM (soybean lipoxidase; maximal inhibition): 49.8 ± 5.23%
IC50 (soybean lipoxidase): > 184 µM
inhibition at 1 µM (RBL-2H3 cells [3]; [9]): < 15%
Effect on A23187 (calcium ionophore)-induced degranulation (in words) (RBL-2H3 cells [3]): did not prevent degranulation
inhibition at 1 µM (RBL-2H3 cells [4]; [10]): < 15%
Effect on IgE/antigen-induced degranulation (in words) (RBL-2H3 cells [4]): did not prevent degranulation
Maximum non-toxic concentration (RBL-2H3 cells [8]): 1 µM

O=c1c(O)c(-c2ccc(O)c(O)c2)oc2cc(O)cc(O)c12 [Quercetin, reference compound]
Concentration required to reduce β-hexosaminidase release (RBL-2H3 cells [3]; A23187 assay, 10-fold higher than in IgE/antigen assay): 100 µM

O=C(O)c1cc(=O)c2c(OCC(O)COc3cccc4oc(C(=O)O)cc(=O)c34)cccc2o1 [sodium cromoglycate, Sodium cromoglycate, reference compound]
Concentration required for complete hyaluronidase inhibition ([1]; positive control): 10 mM
